Results reported in ChEMBL document CHEMBL6092226, “Tilting the Scales toward EGFR Mutant Selectivity: Expanding the Scope of Bivalent "Type V" Kinase Inhibitors” (J Med Chem, 2024).
pEC50, pKi: −log10 of the molar value. Activity calls are given as the source filed them. The calls are words filed in the database; no cut-off is given here.

Columns and labels:
[1] = biological target: Epidermal growth factor receptor (Homo sapiens, UniProt P00533, L858R/T790M); assay: Time-dependent irreversible inhibition of GST-tagged EGFR L858R/T790M mutant cytoplasmic domain (669 to 1210 residues) (unknown origin) assessed as apparent inactivation constant (Ki) incubated for 240 mins in presence of ATP by fluorescence based analysis; settings: read-out: Ki(app)
Epidermal growth factor receptor, sequence (P00533 25-1210 T790M/L858R limits assumed): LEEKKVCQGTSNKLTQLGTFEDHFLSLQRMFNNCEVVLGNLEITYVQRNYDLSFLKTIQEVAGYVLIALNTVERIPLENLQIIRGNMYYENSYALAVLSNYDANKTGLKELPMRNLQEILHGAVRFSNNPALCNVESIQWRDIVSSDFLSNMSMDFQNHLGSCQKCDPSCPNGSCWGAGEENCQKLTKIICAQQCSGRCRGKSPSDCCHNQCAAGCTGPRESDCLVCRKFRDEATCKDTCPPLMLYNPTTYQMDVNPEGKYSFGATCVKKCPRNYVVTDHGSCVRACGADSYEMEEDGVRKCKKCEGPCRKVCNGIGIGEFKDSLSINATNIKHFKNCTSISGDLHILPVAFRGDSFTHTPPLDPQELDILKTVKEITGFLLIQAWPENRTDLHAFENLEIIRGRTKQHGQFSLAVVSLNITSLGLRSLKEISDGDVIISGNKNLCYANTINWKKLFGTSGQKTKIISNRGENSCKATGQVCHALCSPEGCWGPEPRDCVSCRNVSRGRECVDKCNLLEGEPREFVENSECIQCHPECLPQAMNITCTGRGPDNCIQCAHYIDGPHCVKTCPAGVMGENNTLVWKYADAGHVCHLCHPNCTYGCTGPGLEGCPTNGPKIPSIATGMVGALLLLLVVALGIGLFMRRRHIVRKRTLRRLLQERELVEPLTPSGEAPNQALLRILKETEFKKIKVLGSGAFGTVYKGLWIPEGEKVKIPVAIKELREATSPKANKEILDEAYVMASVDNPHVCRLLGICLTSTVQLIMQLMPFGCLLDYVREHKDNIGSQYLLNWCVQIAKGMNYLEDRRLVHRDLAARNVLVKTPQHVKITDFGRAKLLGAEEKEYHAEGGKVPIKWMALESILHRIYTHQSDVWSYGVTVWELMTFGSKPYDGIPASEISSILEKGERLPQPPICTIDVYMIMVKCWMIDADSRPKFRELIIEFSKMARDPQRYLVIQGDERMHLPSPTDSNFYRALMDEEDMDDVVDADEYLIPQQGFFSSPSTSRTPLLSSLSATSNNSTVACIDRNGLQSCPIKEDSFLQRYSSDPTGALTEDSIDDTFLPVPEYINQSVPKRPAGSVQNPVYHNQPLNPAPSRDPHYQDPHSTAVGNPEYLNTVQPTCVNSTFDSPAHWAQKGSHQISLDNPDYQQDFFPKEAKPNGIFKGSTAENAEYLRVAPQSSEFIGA

[2] = Metabolic stability in pooled male human liver microsomes at 150 uM measured after 2 hrs in presence of NADPH regenerating system by LC-MS analysis; format: ADME, Microsome
[3] = Drug metabolism in pooled male human liver microsomes assessed as thioether oxidation mediated metabolite formation at 150 uM measured after 2 hrs by LC-MS analysis; format: ADME, Microsome
[4] = species on record: Homo sapiens; assay: Inhibition of DMPK2 (unknown origin) at 1 uM by Eurofins DiscoverX KINOMEscan analysis relative to control
[5] = biological target: Myosin-IIIa (Homo sapiens) (UniProt Q8NEV4); assay: Inhibition of MYO3A (unknown origin) at 1 uM by Eurofins DiscoverX KINOMEscan analysis relative to control
Myosin-IIIa (Homo sapiens), sequence (Q8NEV4 whole entry): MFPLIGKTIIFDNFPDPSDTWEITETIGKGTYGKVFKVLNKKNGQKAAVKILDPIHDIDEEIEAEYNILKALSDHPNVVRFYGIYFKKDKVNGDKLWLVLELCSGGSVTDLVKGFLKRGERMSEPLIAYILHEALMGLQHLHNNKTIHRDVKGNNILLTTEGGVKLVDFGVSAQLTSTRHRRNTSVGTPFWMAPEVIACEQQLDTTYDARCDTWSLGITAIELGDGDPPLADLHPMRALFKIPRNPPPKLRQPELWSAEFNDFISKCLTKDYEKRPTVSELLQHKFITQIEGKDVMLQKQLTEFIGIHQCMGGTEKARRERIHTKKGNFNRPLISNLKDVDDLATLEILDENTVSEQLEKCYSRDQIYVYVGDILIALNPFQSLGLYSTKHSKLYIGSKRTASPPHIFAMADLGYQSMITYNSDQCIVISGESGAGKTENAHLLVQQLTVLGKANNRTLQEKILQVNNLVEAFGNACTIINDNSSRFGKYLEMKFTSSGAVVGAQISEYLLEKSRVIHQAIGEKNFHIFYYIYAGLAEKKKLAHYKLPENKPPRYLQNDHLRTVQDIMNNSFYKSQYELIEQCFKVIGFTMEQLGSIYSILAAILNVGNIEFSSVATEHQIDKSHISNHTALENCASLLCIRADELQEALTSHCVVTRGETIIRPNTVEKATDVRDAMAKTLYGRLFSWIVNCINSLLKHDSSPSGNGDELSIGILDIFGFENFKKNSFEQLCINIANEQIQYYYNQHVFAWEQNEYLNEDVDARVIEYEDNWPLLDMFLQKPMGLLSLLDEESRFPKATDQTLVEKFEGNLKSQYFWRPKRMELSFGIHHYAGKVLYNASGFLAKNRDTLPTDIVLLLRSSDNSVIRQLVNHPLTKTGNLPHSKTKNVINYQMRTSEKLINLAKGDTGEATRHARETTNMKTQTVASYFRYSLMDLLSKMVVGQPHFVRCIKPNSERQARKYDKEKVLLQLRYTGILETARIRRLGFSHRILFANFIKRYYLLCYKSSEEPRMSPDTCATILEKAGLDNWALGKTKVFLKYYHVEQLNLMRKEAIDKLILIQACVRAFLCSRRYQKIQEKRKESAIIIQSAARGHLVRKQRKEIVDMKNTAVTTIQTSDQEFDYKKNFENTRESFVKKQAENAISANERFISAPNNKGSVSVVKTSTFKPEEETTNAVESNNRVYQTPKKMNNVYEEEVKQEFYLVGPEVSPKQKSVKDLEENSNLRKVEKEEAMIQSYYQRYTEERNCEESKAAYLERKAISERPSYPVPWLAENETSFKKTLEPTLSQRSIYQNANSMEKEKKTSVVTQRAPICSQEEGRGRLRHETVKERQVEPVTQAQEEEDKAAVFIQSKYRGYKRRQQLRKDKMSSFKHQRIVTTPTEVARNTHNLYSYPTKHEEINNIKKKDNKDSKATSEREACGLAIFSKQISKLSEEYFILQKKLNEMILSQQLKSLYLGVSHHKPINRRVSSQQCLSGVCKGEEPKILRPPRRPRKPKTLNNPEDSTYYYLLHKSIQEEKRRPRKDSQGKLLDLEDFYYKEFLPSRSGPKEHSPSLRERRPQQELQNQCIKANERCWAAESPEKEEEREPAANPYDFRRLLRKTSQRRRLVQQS

[6] = biological target: T1, Dual specificity mitogen-activated protein kinase kinase 7 (Homo sapiens) (UniProt O14733); assay: Inhibition of MKK7 (unknown origin) at 1 uM by Eurofins DiscoverX KINOMEscan analysis
T1 sequence (whole entry): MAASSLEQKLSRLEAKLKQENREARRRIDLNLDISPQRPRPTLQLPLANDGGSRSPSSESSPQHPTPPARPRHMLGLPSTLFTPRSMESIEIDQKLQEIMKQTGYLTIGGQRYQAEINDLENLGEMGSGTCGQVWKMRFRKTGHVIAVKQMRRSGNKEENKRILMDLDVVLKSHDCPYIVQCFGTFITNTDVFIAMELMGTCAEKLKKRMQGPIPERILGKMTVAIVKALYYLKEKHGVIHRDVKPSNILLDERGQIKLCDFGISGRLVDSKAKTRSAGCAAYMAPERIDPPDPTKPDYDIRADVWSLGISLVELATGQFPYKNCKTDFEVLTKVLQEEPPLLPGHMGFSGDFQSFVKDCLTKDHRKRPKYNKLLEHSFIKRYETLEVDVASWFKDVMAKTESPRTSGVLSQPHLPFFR

[7] = biological target: Tyrosine-protein kinase BTK (Homo sapiens) (UniProt Q06187); assay: Inhibition of BTK (unknown origin) at 1 uM by Eurofins DiscoverX KINOMEscan analysis
Tyrosine-protein kinase BTK (Homo sapiens), sequence (Q06187 whole entry): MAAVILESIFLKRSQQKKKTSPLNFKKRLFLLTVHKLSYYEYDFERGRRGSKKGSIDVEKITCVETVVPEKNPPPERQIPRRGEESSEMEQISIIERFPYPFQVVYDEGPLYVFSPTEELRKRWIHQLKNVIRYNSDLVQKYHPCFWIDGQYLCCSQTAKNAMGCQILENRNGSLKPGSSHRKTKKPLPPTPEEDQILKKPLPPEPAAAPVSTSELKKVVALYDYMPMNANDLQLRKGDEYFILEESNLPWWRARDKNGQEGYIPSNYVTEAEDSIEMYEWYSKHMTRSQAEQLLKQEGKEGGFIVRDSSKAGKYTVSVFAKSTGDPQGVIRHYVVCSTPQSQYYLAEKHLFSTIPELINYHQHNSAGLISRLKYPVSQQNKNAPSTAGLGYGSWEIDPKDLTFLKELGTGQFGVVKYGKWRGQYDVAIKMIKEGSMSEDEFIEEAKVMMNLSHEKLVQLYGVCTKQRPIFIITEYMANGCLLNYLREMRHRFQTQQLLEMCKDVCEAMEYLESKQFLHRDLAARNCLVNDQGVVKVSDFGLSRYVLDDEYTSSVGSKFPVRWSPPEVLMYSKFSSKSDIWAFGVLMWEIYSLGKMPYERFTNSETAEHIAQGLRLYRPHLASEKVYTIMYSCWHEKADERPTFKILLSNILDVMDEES

[8] = biological target: T2, Cytoplasmic tyrosine-protein kinase BMX (Homo sapiens) (UniProt P51813); assay: Inhibition of BMX (unknown origin) at 1 uM by Eurofins DiscoverX KINOMEscan analysis
T2 sequence (whole entry): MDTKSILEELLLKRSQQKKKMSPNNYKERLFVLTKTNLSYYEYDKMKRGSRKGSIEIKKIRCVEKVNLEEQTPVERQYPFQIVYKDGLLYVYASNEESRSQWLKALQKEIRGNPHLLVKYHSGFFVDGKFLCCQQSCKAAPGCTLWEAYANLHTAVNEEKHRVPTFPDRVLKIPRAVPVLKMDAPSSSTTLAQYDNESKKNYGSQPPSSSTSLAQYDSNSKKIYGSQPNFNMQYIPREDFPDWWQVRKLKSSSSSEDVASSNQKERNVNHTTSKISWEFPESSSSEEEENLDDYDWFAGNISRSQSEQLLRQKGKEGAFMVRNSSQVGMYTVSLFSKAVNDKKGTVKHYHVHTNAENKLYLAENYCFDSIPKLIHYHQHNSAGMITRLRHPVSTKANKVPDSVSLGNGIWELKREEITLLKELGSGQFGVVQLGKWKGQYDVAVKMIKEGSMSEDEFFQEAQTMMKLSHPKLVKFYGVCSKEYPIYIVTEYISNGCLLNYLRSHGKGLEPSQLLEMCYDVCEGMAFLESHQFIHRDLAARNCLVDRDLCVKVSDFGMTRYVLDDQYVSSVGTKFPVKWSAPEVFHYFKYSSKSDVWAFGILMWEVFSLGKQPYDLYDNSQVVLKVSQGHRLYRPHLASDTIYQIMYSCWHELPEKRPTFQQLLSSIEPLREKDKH

[9] = biological target: T3, Tyrosine-protein kinase JAK3 (Homo sapiens) (UniProt P52333); assay: Inhibition of JAK3 (unknown origin) at 1 uM by Eurofins DiscoverX KINOMEscan analysis
T3 sequence (whole entry): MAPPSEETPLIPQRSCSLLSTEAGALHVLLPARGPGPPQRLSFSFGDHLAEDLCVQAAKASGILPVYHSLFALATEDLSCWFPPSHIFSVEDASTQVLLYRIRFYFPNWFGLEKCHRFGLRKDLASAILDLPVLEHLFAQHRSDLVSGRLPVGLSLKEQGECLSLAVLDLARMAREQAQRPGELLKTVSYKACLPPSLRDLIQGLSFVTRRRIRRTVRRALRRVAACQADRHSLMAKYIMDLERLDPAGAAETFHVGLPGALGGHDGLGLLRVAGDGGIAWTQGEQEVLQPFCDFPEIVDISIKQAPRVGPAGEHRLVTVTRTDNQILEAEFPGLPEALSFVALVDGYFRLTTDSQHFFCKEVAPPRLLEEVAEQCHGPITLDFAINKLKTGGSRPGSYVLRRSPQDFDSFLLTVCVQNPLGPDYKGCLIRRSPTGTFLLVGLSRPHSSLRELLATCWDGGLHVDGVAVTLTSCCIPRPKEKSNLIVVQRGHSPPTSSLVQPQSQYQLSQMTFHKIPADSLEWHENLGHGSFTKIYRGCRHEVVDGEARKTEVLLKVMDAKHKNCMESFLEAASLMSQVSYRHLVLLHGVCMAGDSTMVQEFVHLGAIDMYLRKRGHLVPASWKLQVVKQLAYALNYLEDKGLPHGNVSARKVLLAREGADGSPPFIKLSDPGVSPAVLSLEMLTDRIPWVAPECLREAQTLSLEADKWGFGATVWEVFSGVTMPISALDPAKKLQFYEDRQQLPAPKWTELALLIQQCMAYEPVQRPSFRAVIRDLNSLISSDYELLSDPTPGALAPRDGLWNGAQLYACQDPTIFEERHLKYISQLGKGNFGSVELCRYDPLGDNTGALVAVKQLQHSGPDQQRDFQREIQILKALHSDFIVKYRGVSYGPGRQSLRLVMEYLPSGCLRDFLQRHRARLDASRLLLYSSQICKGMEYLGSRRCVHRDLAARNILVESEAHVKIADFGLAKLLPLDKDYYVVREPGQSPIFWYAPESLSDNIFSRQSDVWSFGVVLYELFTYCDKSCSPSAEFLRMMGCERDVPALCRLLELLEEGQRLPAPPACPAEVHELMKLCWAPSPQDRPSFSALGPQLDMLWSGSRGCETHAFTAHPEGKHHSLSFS

[10] = tested on: BaF3; assay: cells; settings: Mus musculus, BaF3, 72 h

With `C=CC(=O)Nc1ccc(OC)c(Nc2cc(-c3[nH]c(SC)nc3-c3cccc(NC(=O)c4cccc(O)c4CN4Cc5ccccc5C4=O)c3)ccn2)c1` the pKi [1] was 6.27, the Stability [2] was “Stable” and the Drug metabolism [3] was “metabolite_detected”. The inhibition [4] was under 10%, the inhibition [5] was under 10% and the inhibition [6] was “inactive”. The inhibition [7] was “inactive”, the inhibition [8] was “inactive” and the inhibition [9] was “inactive”. The pEC50 [10] was 6.37.
